Entries after “also recorded” stand apart in the source; their conditions may differ. Peptide text beside a SMILES is read from it.
Tested on: persistent sodium current (I NaP) from MSNs in the nucleus accumbens
Assay: Brain slice voltage-clamp: persistent Na^+ current (I NaP) in MSNs
Assay type: cell-based, male C57BL6/J mice
Protocol: Brain slices from male C57BL6/J mice aged 28–45 days were prepared to contain the nucleus accumbens (NAc). Mice were anesthetized with Isoflurane (Baxter, Deerfield, IL) and brains extracted following decapitation. Brains were sliced with a vibratome (Leica Microsystems, Wetzlar, Germany) to achieve 300 μm coronal slices. Brains sliced in extracellular salts; consisting of the following (mM): Tris‐HCl 72, Tris‐Base18, NaH2PO4 1.2, KCl 2.5, HEPES 20, sucrose 20, NaHCO3 25, glucose 25, MgSO4 10, Na‐pyruvate 3, Na‐ascorbate 5 and CaCl2 0.5 (Sigma‐Aldrich, St. Louis, MO); 300–310 mOsm, pH 7.4 and was continuously oxygenated (mixture of 95%/5% O2/CO2). […] Evoked action potentials with a range of current injections from 10 pA to 220 pA with 800 ms every 10 pA were measured and number of action potentials, instantaneous frequency, and other electrical parameters were determined. […] The voltage‐dependence of I NaP was determined using standard protocols (Yue, Remy, Su, Beck, & Yaari, 2005). […] Membrane capacitance was calculated using the equation: capacitance = membrane time constant/input resistance (Meitzen, Weaver, Brenowitz, & Perkel, 2009). The membrane input resistance was measured by a series of 600 ms hyperpolarizing current steps from −50 to 0 pA, step 10 pA with 1 s interval. […]

Structure (SMILES): CC(=O)N[C@@H](Cc1ccccc1)C(=O)N[C@@H](CC(C)C)C(=O)N1CCC[C@H]1C(=O)N[C@@H](CCCCN)C(N)=O [FLPK] (Ac-FLPK-NH2)
- effect on I NaP (50 µM FLPK vs 0.1% DMSO): increase in persistent sodium current; also recorded: potentiated persistent Na^+ currents
- persistent sodium current (I NaP) (50 µM FLPK, slow voltage ramps (50 mV/s), TTX-subtracted, control 111.4 ± 15.7 pA, p < .03, n = 14): −158.2 ± 14.2 pA

From publication PMC7363588, “Mapping of the FGF14:Nav1.6 complex interface reveals FLPK as a functionally active peptide modulating excitability” (Physiological Reports, 2020)
